Measurements published in patent US4774184A, “Culture and process for producing antibiotic LL-D42067alpha” (American Cyanamid Company, priority 1985, dated 1988).
Converted amounts (≈) assume the structure as drawn. Where two headings read alike, the source gives them in different places.

How the values were obtained:
Format in all cases: cell-based
[1] = test system: Bacillus cereus; experiment: in vitro antimicrobial spectrum, agar plate dilution MIC; details: strain LL #4, Mueller-Hinton agar, 18 hours, 35° C., read-out: minimal inhibitory concentration (MIC)
Procedure: (§1) The in vitro antimicrobial spectrum of LL-D42067α was determined by the agar plate dilution method with Mueller-Hinton agar and an inoculum of each test organism of approximately 10^4 colony forming units delivered by the Steers replicating device. The minimal inhibitory concentration (MIC) in mcg/ml was defined as the lowest concentration of LL-D42067α that inhibited visible growth after 18 hours incubation at 35° C.

[2] = test system: Streptococcus mutans; experiment: as above; details: 18 hours, 35° C., read-out: minimal inhibitory concentration (MIC)
Procedure: as §1

[3] = test system: Streptococcus sanguis; experiment: as above; details: strain G9B (a), Mueller-Hinton agar, 18 hours, 35° C., read-out: minimal inhibitory concentration (MIC)
Procedure: as §1

[4] = test system: Micrococcus luteus; experiment: as above; details: strain PC 1001, Mueller-Hinton agar, 18 hours, 35° C., read-out: minimal inhibitory concentration (MIC)
Procedure: as §1

[5] = test system: Streptococcus (enterococcus sp); experiment: as above; details: Mueller-Hinton agar, 18 hours, 35° C.
Procedure: as §1

[6] = test system: Candida albicans; experiment: as above; details: strain CA 300, Mueller-Hinton agar, 18 hours, 35° C., read-out: minimal inhibitory concentration (MIC)
Procedure: as §1

[7] = test system: Klebsiella pneumoniae; experiment: as above; details: strain AD, Mueller-Hinton agar, 18 hours, 35° C., read-out: minimal inhibitory concentration (MIC)
Procedure: as §1

[8] = test system: Escherichia coli; experiment: as above; details: 18 hours, 35° C., read-out: minimal inhibitory concentration (MIC)
Procedure: as §1

[9] = test system: Acinetobacter calcoaceticus; experiment: as above; details: strain Stfd-79-17, Mueller-Hinton agar, 18 hours, 35° C., read-out: minimal inhibitory concentration (MIC)
Procedure: as §1

[10] = test system: Streptococcus faecalis; experiment: as above; details: Enterococcus faecalis, ATCC29212; strain ATCC 29212; Mueller-Hinton agar, 18 hours, 35° C.; read-out: minimal inhibitory concentration (MIC)
Procedure: as §1

[11] = test system: Proteus morganii; experiment: as above; details: Morganella morganii; strain K-79-25; Mueller-Hinton agar, 18 hours, 35° C.; read-out: minimal inhibitory concentration (MIC)
Procedure: as §1

[12] = test system: Staphylococcus epidermidis; experiment: as above; details: 18 hours, 35° C., read-out: minimal inhibitory concentration (MIC)
Procedure: as §1

[13] = test system: Bacillus subtilis; experiment: as above; details: ATCC6633, strain ATCC 6633, Mueller-Hinton agar, 18 hours, 35° C., read-out: minimal inhibitory concentration (MIC)
Procedure: as §1

[14] = test system: Saccharomyces cerevisiae; experiment: as above; details: strain Y 15, Mueller-Hinton agar, 18 hours, 35° C., read-out: minimal inhibitory concentration (MIC)
Procedure: as §1

[15] = test system: Staphylococcus aureus; experiment: as above; details: Mueller-Hinton agar, 18 hours, 35° C.; for MIC: Staphylococcus aureus, read-out: minimal inhibitory concentration (MIC)
Procedure: as §1

[16] = test system: gram-positive bacteria; experiment: in vitro antimicrobial spectrum, summary in words; details: summary of Table VI
Procedure: as §1

[17] = test system: yeasts; experiment: in vitro antimicrobial spectrum, summary in words; details: summary of Table VI
Procedure: as §1

For COc1c2c(c(O)c3c(=O)c4c(oc13)C(O)CCC4O)-c1c3c(c4cc(C)n(C)c(=O)c4c1O)OCOC3C2 (stereo not drawn) [LL-D42067α], the MIC [1] was ≤ 0.06 mg/L, the MIC ([2]; ATCC27352, strain ATCC 27352, Mueller-Hinton agar) was ≤ 0.06 mg/L and the MIC ([2]; strain BHI (b), Mueller-Hinton agar) was ≤ 0.06 mg/L. The MIC [3] was ≤ 0.06 mg/L, the MIC [4] was ≤ 0.06 mg/L and the MIC ([5]; Streptococcus, strain OSU-75-1, read-out: minimal inhibitory concentration (MIC)) was ≤ 0.06 mg/L. The “minimal inhibitory concentration (MIC)” value ([5]; strain SM-77-15) was ≤ 0.06 mg/L, the MIC [6] was 256 mg/L (≈ 478 µM) and the MIC [7] was 512 mg/L (≈ 956 µM). For the same compound, the MIC ([8]; ATCC25922, strain ATCC 25922, Mueller-Hinton agar) was 512 mg/L (≈ 956 µM), the MIC ([8]; strain #311, Mueller-Hinton agar) was 512 mg/L (≈ 956 µM) and the MIC [9] was 512 mg/L (≈ 956 µM). For the same compound, the MIC [10] was ≤ 0.06 mg/L, the MIC [11] was 512 mg/L (≈ 956 µM) and the MIC ([12]; ATCC12228, strain ATCC 12228, Mueller-Hinton agar) was ≤ 0.06 mg/L. For the same compound, the MIC ([12]; strain CMC-83-56, Mueller-Hinton agar) was ≤ 0.06 mg/L, the MIC [13] was ≤ 0.06 mg/L and the MIC [14] was 32 mg/L (≈ 59.8 µM). The MIC ([15]; ATCC25923, strain ATCC 25923) was ≤ 0.06 mg/L, the MIC ([15]; strain Smith) was ≤ 0.06 mg/L and the “minimal inhibitory concentration (MIC)” value ([15]; strain LL #14) was ≤ 0.06 mg/L. The “minimal inhibitory concentration (MIC)” value ([15]; strain LL #27) was ≤ 0.06 mg/L, the “minimal inhibitory concentration (MIC)” value ([15]; strain LL #45) was ≤ 0.06 mg/L and the “antimicrobial activity versus gram-positive bacteria” value [16] was “active”. The “antimicrobial activity against yeasts” value [17] was “moderately active”.
